From patent publication US20230151003A1, “COMPOUNDS AND METHODS OF USE” (Exelixis, Inc., priority 2020, published 2023) come the findings set out here.

What all share (format): cell-based
Assay [1] deals with Met (Homo sapiens, UniProt P08581). In words: Met autophosphorylation ELISA in PC-3 cells. Also on record: endogenous in cells; host or cells: PC-3 prostate cancer cells (ATCC #CRL-1435). The note with it: Table 3 Cellular Activities, HGF-stimulated, phospho-Met ELISA, read-out: c-Met IC50. As for the experimental part:
PC-3 prostate cancer cells (ATCC #CRL-1435) were seeded at 4×10^4 cells/well onto 24-well plates (Greiner #662165), in DMEM (Thermo Fisher #11995-040) containing 10% FBS (Thermo Fisher #26140-079), 1% MEM NEAA (Thermo Fisher #11140-050), 1% GlutaMax (Thermo Fisher #35050-061), and 1% Penicillin Streptomycin (Thermo Fisher #15140-122). PC-3 cells were incubated at 37° C., 5% CO2 for 24 h and then starved for 3 h in serum-free medium. Test compounds were serially diluted to produce an 8-point dose curve in fresh serum-free medium to a final concentration of 0.3% DMSO (vehicle) and added to the cells and incubated for 1 h. Cells were then stimulated with 100 ng/mL recombinant human HGF (R&D Systems #294-HG-250) for 10 min, washed with cold PBS, and immediately lysed with 130 μL of cold 1× lysis buffer [20 mM Tris, 137 mM sodium chloride, 2 mM EDTA, 10% glycerol, 1% NP-40 alternative, 1 mM activated sodium orthovanadate, 1 mM PefaBloc SC (Sigma-Aldrich #11429868001), protease/phosphatase inhibitor tablet (Thermo Fisher #A32959)]. Lysates were clarified by centrifugation and 100 μL/well added into the PathScan phospho-Met (panTyr) Sandwich ELISA (Cell Signaling Technology #7333). Assay was performed according to manufacturer's instructions. Positive control wells (100% activity) contained HGF-stimulated, DMSO-treated cell lysates. Negative control wells (0% activity) contained HGF-stimulated, reference inhibitor-treated cell lysates. IC50 values were calculated by nonlinear regression analysis using a 4-parameter logistic curve fit in ActivityBase XE (IDBS).

The target in assay [2] is KDR (Homo sapiens, UniProt P35968). Description: KDR autophosphorylation ELISA in HUVEC cells. On the set-up: endogenous in cells; host or cells: HUVEC (Lonza #C2519A). Particulars: Table 3 Cellular Activities, VEGF165-stimulated, phospho-KDR ELISA. As for the experimental part:
Human umbilical vein endothelial cells or HUVEC (Lonza #C2519A) were seeded at 2×10^4 cells/well onto 96-well plates (Corning #3904), in EGM-2 growth medium (Lonza #CC-3162) containing 1% Penicillin Streptomycin (Thermo Fisher #15140-122). HUVEC cells were incubated at 37° C., 5% CO2 for 24 h and then starved for 24 h in serum-free EBM-2 basal medium (Lonza #CC-3156) containing 1% Penicillin Streptomycin. Test compounds were serially diluted to produce an 8-point dose curve in fresh serum-free medium to a final concentration of 0.3% DMSO (vehicle) and added to the cells and incubated for 1 h. Cells were then stimulated with 100 ng/mL recombinant human VEGF165 (R&D Systems #293-VE-500) for 5 min, washed with cold PBS, and immediately lysed with 130 μL of cold 1× lysis buffer [20 mM Tris, 137 mM sodium chloride, 2 mM EDTA, 10% glycerol, 1% NP-40 alternative, 1 mM activated sodium orthovanadate, 1 mM PefaBloc SC (Sigma-Aldrich #11429868001), protease/phosphatase inhibitor tablet (Thermo Fisher #A32959)]. Lysates were collected and 100 μL/well added into the human phospho-KDR DuoSet IC ELISA (R&D Systems #DYC1766-2). Assay was performed according to manufacturer's instructions and sample phospho-KDR concentrations were extrapolated using human phospho-KDR control (R&D Systems #841421) as a standard. Positive control wells (100% activity) contained VEGF165-stimulated, DMSO-treated cell lysates. Negative control wells (0% activity) contained non-stimulated cell lysates. IC50 values were calculated by nonlinear regression analysis using a 4-parameter logistic curve fit in ActivityBase XE (IDBS).
A general note: In an ELISA, binding on a coated surface is turned into a signal by an enzyme label.

The target in assay [3] is T1, Mer (Homo sapiens, UniProt Q12866).
T1 construct: host or cells: 293A cells (Thermo Fisher #R70507)
T1 sequence (Q12866 21-999): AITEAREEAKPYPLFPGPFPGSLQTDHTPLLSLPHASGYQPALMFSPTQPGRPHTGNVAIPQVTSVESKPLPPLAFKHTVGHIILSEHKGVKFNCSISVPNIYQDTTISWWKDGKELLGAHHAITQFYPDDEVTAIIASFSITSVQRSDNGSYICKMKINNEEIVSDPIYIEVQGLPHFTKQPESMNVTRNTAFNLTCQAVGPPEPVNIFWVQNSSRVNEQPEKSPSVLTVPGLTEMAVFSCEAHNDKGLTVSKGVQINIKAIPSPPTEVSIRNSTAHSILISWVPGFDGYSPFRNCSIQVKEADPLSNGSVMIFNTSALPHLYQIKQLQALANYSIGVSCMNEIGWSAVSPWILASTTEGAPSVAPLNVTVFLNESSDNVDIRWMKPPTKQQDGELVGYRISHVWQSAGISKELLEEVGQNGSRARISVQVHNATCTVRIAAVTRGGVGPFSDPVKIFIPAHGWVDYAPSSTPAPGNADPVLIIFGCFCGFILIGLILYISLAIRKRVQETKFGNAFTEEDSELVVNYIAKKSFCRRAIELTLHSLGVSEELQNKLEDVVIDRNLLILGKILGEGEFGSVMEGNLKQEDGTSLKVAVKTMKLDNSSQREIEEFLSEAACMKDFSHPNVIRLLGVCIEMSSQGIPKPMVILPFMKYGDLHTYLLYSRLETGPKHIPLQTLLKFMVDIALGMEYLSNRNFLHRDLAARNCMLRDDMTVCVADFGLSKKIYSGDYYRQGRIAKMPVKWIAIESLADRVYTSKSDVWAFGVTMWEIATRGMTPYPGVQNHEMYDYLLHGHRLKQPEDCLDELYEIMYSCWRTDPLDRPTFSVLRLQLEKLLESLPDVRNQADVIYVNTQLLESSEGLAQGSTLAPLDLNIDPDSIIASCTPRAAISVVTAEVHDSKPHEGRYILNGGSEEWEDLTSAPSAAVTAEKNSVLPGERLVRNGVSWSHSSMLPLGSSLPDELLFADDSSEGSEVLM
In words: Mer autophosphorylation ELISA in transient transfected 293A cells. The note with it: Table 3 Cellular Activities; MERTK-transfected 293A cells, phospho-Mer ELISA. As for the experimental part: 293A cells (Thermo Fisher #R70507) were seeded at 1.5×10^6 cells/well onto 100 mm dish (Greiner #664169), in DMEM (Thermo Fisher #11995-040) containing 10% FBS (Thermo Fisher #26140-079), 1% MEM NEAA (Thermo Fisher #11140-050), 1% GlutaMax (Thermo Fisher #35050-061), and 1% Penicillin Streptomycin (Thermo Fisher #15140-122). 293A cells were incubated at 37° C., 5% CO2 for 24 h and then transfected with 6μg MERTK DNA (Genecopoeia #EX-Z8208-M02) using TransIT LT1 transfection reagent (Mirus-Bio #MIR2305). After 24 h incubation, the transfected 293A cells were seeded at 1×10^5 cells/well onto 96-well plates (Corning #3904) in DMEM growth medium overnight. Test compounds were serially diluted to produce an 8-point dose curve in fresh serum-free medium to a final concentration of 0.3% DMSO (vehicle) and added to the cells and incubated for 1 h. Cells were then immediately lysed with 150 μL of cold 1× lysis buffer […], 137 mM sodium chloride, 2 mM EDTA, 10% glycerol, 1% NP-40 alternative, 1 mM activated sodium orthovanadate, 1 mM PefaBloc SC (Sigma-Aldrich #11429868001), protease/phosphatase inhibitor tablet (Thermo Fisher #A32959)]. Lysates were clarified by centrifugation and 50 μL/well added into the human phospho-Mer DuoSet IC ELISA (R&D Systems #DYC2579-2). Assay was performed according to manufacturer's instructions and sample phospho-Mer concentrations were extrapolated using human phospho-Mer control (R&D Systems #841793) as a standard. Positive control wells (100% activity) contained DMSO-treated cell lysates. Negative control wells (0% activity) contained reference inhibitor-treated cell lysates. IC50 values were calculated by nonlinear regression analysis using a 4-parameter logistic curve fit in ActivityBase XE (IDBS).

Met, sequence (P08581 25-1390): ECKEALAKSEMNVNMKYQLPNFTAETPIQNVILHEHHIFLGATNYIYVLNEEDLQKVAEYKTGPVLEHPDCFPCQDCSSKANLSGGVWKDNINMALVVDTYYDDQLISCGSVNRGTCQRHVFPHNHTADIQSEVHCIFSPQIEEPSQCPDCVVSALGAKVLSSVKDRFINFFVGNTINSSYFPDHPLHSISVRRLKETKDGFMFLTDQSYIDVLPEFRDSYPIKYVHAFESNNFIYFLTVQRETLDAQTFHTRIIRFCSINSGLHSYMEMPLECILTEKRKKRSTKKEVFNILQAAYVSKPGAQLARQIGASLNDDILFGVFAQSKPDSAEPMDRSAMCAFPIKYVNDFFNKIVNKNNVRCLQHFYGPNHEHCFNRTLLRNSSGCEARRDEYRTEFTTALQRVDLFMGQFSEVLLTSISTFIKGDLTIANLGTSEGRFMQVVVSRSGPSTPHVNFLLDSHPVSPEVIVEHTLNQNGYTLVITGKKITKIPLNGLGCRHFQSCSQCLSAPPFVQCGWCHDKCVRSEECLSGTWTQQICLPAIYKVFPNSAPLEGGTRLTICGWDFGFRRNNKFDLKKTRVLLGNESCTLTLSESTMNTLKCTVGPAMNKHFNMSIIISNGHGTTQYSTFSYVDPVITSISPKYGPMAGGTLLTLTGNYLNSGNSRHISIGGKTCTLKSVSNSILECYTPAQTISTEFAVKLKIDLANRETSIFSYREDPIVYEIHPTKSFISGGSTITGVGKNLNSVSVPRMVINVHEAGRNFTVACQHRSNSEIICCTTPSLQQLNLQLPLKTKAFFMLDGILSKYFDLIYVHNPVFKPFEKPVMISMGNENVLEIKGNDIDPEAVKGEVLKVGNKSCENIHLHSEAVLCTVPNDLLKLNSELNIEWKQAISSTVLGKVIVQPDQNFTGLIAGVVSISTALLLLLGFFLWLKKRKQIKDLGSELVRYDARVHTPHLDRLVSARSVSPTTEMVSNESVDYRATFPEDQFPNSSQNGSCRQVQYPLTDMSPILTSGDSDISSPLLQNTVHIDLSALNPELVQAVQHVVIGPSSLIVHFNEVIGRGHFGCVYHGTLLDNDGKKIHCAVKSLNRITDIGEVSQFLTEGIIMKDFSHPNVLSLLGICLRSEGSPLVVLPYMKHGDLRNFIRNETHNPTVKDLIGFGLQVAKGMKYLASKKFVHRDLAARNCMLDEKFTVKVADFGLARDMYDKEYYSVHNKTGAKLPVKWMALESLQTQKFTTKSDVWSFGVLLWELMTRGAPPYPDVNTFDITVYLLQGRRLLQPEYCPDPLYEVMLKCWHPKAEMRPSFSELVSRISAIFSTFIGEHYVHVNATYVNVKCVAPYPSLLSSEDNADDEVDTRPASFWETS
KDR, sequence (P35968 20-1356): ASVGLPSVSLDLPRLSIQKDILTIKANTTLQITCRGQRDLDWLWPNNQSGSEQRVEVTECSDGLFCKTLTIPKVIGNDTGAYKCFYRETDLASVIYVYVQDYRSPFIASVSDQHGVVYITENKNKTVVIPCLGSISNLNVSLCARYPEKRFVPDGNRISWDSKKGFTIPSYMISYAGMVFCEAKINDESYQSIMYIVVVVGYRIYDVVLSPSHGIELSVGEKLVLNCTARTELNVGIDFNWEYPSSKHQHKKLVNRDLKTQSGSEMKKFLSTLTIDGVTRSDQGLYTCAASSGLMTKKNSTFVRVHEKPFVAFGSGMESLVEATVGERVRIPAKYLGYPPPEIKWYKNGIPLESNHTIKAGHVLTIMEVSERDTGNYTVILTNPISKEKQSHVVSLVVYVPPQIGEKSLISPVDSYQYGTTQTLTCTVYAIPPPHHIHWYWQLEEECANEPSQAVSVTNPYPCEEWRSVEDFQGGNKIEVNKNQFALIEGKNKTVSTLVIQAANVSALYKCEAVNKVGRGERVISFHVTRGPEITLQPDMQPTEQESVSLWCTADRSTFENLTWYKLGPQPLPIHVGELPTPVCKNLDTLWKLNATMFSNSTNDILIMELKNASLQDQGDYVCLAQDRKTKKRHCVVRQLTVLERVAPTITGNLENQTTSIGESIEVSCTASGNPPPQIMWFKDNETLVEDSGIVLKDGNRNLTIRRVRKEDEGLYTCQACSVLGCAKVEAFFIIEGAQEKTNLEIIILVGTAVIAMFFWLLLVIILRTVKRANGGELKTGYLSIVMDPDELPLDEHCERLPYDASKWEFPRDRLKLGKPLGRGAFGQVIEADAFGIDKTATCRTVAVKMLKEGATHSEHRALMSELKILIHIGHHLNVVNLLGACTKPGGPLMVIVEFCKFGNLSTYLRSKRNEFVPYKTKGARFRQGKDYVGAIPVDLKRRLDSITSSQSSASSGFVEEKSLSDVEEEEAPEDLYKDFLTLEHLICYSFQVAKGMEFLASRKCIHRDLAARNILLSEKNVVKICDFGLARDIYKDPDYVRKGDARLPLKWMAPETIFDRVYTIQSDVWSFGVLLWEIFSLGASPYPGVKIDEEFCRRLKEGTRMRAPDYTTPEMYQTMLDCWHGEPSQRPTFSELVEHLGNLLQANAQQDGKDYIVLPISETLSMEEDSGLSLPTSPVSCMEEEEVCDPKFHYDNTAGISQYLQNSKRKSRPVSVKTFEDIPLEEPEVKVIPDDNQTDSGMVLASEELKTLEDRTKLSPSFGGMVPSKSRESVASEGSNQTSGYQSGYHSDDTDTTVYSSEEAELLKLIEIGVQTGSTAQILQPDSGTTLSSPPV

For `COc1cnc2c(Oc3ccc(NC(=O)c4c(C)n(C)c(C)c(-c5ccco5)c4=O)cc3F)ccnc2c1` [Compound 162, N-[3-Fluoro-4-[(7-methoxy-1,5-naphthyridin-4-yl)oxy]phenyl]-5-(furan-2-yl)-1,2,6-trimethyl-4-oxopyridine-3-carboxamide], the IC50 is not above 100 nM in assay [1], 300 to 1000 nM in assay [2] and not above 100 nM in assay [3].
As for `CCOCCOCCOc1cc(-n2c(C)ccc(C(=O)Nc3ccc(Oc4ccnc5cc(OC)c(OC)nc45)c(F)c3)c2=O)ccn1` [Compound 224, N-[4-[(6,7-Dimethoxy-1,5-naphthyridin-4-yl)oxy]-3-fluorophenyl]-1-[2-[2-(2-ethoxyethoxy)ethoxy]pyridin-4-yl]-6-methyl-2-oxopyridine-3-carboxamide], the IC50 in assay [1], in assay [2] and in assay [3] was not above 100 nM each time.
`COc1cc2nccc(Oc3ccc(NC(=O)c4ccc(C)n(-c5ccnc(OC(C)C)c5)c4=O)cc3F)c2nc1OC` [Compound 225, N-[4-[(6,7-Dimethoxy-1,5-naphthyridin-4-yl)oxy]-3-fluorophenyl]-6-methyl-2-oxo-1-(2-propan-2-yloxypyridin-4-yl)pyridine-3-carboxamide]: the IC50 in assay [1] was not above 100 nM; in assay [2] it was 300 to 1000 nM; in assay [3] it was not above 100 nM.
As to `CCOc1ccc(-n2c(C)ccc(C(=O)Nc3ccc(Oc4ccnc5cc(OC)cnc45)c(F)c3)c2=O)nc1` [Compound 213, 1-(5-Ethoxypyridin-2-yl)-N-[3-fluoro-4-[(7-methoxy-1,5-naphthyridin-4-yl)oxy]phenyl]-6-methyl-2-oxopyridine-3-carboxamide], the IC50 in assay [1] was 300 to 1000 nM.
Regarding `COc1cc2nccc(Oc3ccc(NC(=O)c4c5n(c(C)c(-c6ccco6)c4=O)CCOC5)cc3F)c2nc1OC` [Compound 314, N-[4-[(6,7-Dimethoxy-1,5-naphthyridin-4-yl)oxy]-3-fluorophenyl]-7-(furan-2-yl)-6-methyl-8-oxo-3,4-dihydro-1H-pyrido[2,1-c][1,4]oxazine-9-carboxamide], the IC50 in assay [1] and in assay [3] was not above 100 nM each time.
With `CCOc1ccc(-n2c(C)ccc(C(=O)Nc3ccc(Oc4ccnc5cc(OC)c(OC)nc45)c(F)c3)c2=O)nc1` [Compound 212, N-[4-[(6,7-Dimethoxy-1,5-naphthyridin-4-yl)oxy]-3-fluorophenyl]-1-(5-ethoxypyridin-2-yl)-6-methyl-2-oxopyridine-3-carboxamide], the IC50 in assay [1] was 100 to 300 nM.
`COc1cc2nccc(Oc3ccc(NC(=O)c4c5n(c(C)c(-c6ccco6)c4=O)CCOC5)cc3)c2nc1OC` [Compound 315, N-[4-[(6,7-Dimethoxy-1,5-naphthyridin-4-yl)oxy]phenyl]-7-(furan-2-yl)-6-methyl-8-oxo-3,4-dihydro-1H-pyrido[2,1-c][1,4]oxazine-9-carboxamide]: the IC50 in assay [1] and in assay [3] was not above 100 nM each time.
`COc1cc2nccc(Oc3ccc(NC(=O)c4c5n(c(C)c(-c6ccsc6)c4=O)CCOC5)cc3)c2nc1OC` [Compound 312, N-[4-[(6,7-Dimethoxy-1,5-naphthyridin-4-yl)oxy]phenyl]-6-methyl-8-oxo-7-thiophen-3-yl-3,4-dihydro-1H-pyrido [2,1-c][1,4]oxazine-9-carboxamide]: the IC50 in assay [1] and in assay [3] was not above 100 nM in each case.
With `COc1cc2nccc(Oc3ccc(NC(=O)c4c5n(c(C)c(-c6cccs6)c4=O)CCOC5)cc3)c2nc1OC` [Compound 316, N-[4-[(6,7-Dimethoxy-1,5-naphthyridin-4-yl)oxy]phenyl]-6-methyl-8-oxo-7-thiophen-2-yl-3,4-dihydro-1H-pyrido [2,1-c][1,4]oxazine-9-carboxamide], the IC50 in assay [1] and in assay [3] was not above 100 nM throughout.
Regarding `COc1cc2nccc(Oc3ccc(NC(=O)c4c5n(c(C)c(-c6cc(C)cs6)c4=O)CCOC5)cc3)c2nc1OC` [Compound 313, N-[4-[(6,7-Dimethoxy-1,5-naphthyridin-4-yl)oxy]phenyl]-6-methyl-7-(4-methylthiophen-2-yl)-8-oxo-3,4-dihydro-1H-pyrido[2,1-c][1,4]oxazine-9-carboxamide], the results for the IC50 in assay [1] and in assay [3] were 100 to 300 nM and not above 100 nM, respectively.
On the same counts, the results for `COc1cc2nccc(Oc3ccc(NC(=O)c4c5n(c(C)c(-c6ccoc6)c4=O)CCOC5)cc3)c2nc1OC` [Compound 311, N-[4-[(6,7-Dimethoxy-1,5-naphthyridin-4-yl)oxy]phenyl]-7-(furan-3-yl)-6-methyl-8-oxo-3,4-dihydro-1H-pyrido[2,1-c][1,4]oxazine-9-carboxamide] are not above 100 nM and not above 100 nM.

One may read the IC50 as the concentration that gives 50% inhibition.
